Where “and” joins values, the source holds several entries; their conditions need not be identical. Equal entries are not always repeated.
Tests used:
[1] = molecular target: T1, acetylcholinesterase (AChE) (Electrophorus electricus, UniProt O42275); assay: Acetylcholinesterase inhibition, colorimetric (DTNB, acetylthiocholine substrate); type: biochemical, electric eel; settings: for inhibition at 500 µM: highest tested concentration; for IC50: Nd = >500 μM
T1 construct: purchased Abcam ab138871
T1 sequence (O42275 24-633): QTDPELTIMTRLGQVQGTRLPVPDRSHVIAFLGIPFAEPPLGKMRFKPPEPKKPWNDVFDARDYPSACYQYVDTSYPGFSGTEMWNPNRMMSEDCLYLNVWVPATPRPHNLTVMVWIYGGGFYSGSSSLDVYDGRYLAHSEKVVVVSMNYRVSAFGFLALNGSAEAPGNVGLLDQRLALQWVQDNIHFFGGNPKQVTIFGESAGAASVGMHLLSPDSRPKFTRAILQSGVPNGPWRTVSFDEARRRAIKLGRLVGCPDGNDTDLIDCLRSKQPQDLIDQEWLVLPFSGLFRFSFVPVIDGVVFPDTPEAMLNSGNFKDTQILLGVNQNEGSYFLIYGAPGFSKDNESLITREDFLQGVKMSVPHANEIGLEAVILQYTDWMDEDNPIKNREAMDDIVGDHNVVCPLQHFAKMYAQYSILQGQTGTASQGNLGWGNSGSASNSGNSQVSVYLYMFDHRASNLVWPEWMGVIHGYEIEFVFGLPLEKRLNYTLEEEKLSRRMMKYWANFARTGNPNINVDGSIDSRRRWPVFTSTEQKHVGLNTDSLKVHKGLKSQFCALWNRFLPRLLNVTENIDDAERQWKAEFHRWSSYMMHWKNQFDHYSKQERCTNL
Procedure: (§1) Pharmacological properties specific to Alzheimer’s disease (AD) were tested on acetylcholinesterases (AChEs) from electric eels and butyrylcholinesterase (BuChE) from equine species using a colorimetric kit (ab138871, Abcam, Cambridge, UK), which measures enzyme activity and inhibition. The reaction was carried out in a final volume of 100 µL in 96-well microplates. […] A 5 µL reaction mixture containing equal amounts of acetylthiocholine/butyrylthiocholine (20X) and DTNB (20X) was then added to each well. Subsequently, the enzyme solution was added to a final concentration of 2 U/mL, and absorbance was measured at 412 nm in kinetic mode for 10 min using a microplate reader (Synergy H1, Biotek, Dorval, QC, Canada). DTNB (Bis(3-carboxy-4-nitrophenyl) disulfide, Ellman’s Reagent), acetylthiocholine iodide, and butyrylthiocholine iodide were obtained from Sigma-Aldrich (Oakville, ON, Canada). Galanthamine (50–0.05 µM) and rivastigmine (400–0.4 µM) were used as positive controls for the AChE and BuChE assays, respectively. Compounds showing inhibition during preliminary screenings were selected for further IC50 value assessment using serially diluted concentrations. All experiments were performed at least twice. Inhibition was calculated using the formula [24]:I = 100 × (1 − ΔAi/ΔA0), where ΔAi is the difference in absorbance between two time points in the presence of the inhibitor, and ΔA0 is the difference in absorbance between two-time points in the presence of DMSO or an appropriate solvent.

[2] = Cytotoxicity assay (Cell-Titer GLO, ATP levels, 72 h); type: cell-based, human; settings: human, 72 h treatment, 4–500 µM
Description: (§2) The human hepatocarcinoma Huh7 cell line (CVCL_0336) was maintained in Dulbecco’s Modified Eagle Medium (DMEM) supplemented with 10% fetal bovine serum (FBS) and 1% penicillin/streptomycin solution (PS, from GIBCO, Fisher Scientific, Toronto, ON, Canada). The human leukemia monocytic THP-1 (CVCL_0006) and adenocarcinoma HCT-8 cell lines (CVCL_2478) were maintained in Roswell Park Memorial Institute (RPMI) medium supplemented with 10% FBS or horse serum, respectively, and 1% PS. All reagents and antibiotics were purchased from GIBCO, Fisher Scientific, Toronto, ON, Canada). Cells were kept in an incubator at 37 °C and 5% CO2.
(§3) In total, 10 × 10^3 Huh7 cells/well, or 5 × 10^4 THP-1 or HCT-8 cells/well were plated in 96-well plates and incubated at 37 °C and 5% CO2. Compounds (4–500 µM, 2-fold dilutions) were added the next day and cytotoxicity was assessed 72 h later by measuring ATP levels with the Cell-Titer GLO assay kit (Promega, Madison, WI, USA). Cell-Titer GLO reagent was added to the plates previously equilibrated to room temperature for 30 min. Plates were mixed for 2 min and incubated for 10 min at room temperature. The luminescence signal was measured with a microplate reader (Synergy H1, Biotek, Dorval, QC, Canada). Viability percentage was calculated as the ratio of the signal of cells exposed to compounds to the signal of cells exposed to solvent (methanol). All experiments were performed at least twice. Median cytotoxic concentrations (CC50) were calculated using GraphPad prism 10.0.2 (GraphPad Software, San Diego, CA, USA).

[3] = test system: human coronavirus OC43 (HCoV-OC43); assay: Antiviral assay, HCoV-OC43 replication in HCT-8 cells (flow cytometry); type: cell-based, human betacoronavirus OC43; settings: for EC50: Betacoronavirus 1, OC43, HCT-8, 72 h, read-out: EC50 OC-43; for SI OC-43 (selectivity index, ratio CC50/EC50): CC50 HCT-8 / EC50 OC-43
[4] = molecular target: butyrylcholinesterase (BuChE) (Equus caballus, UniProt P81908); assay: Butyrylcholinesterase inhibition, colorimetric (DTNB, butyrylthiocholine substrate); type: biochemical, equine; settings: for inhibition at 500 µM: highest tested concentration; for IC50: butyrylthiocholine substrate; for fold increase in BuChE inhibition by N-methylation compared to non-N-methylated control: ratio of IC50 values
Chain of butyrylcholinesterase (BuChE) (P81908 whole entry): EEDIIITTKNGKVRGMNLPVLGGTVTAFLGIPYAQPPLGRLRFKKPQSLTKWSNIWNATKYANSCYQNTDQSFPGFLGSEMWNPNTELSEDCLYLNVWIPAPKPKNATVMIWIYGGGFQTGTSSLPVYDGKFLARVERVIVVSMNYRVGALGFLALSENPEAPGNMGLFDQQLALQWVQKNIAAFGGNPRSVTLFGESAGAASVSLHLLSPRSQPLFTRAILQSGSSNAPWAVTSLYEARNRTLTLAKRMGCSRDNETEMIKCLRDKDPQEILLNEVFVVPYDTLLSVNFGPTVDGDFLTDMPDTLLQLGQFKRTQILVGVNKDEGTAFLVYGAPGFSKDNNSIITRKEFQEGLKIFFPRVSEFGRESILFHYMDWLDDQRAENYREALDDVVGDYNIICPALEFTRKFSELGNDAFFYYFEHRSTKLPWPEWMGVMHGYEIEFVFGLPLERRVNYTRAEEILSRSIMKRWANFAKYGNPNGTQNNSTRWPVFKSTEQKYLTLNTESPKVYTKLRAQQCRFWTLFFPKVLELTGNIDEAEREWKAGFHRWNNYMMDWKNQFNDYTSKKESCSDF
Procedure: as §1

pseudotyped HIV-1 = assay: microbe, parasite or virus in culture; type: cell-based, human immunodeficiency virus (HIV)-1; settings: for SI HIV-1 (selectivity index, ratio CC50/EC50): CC50 THP-1 / EC50 HIV-1; for EC50: Human immunodeficiency virus 1, THP-1, 72 h, read-out: EC50 HIV-1
dengue virus (DENV) = assay: microbe, parasite or virus in culture; type: cell-based; settings: for SI DENV (selectivity index, ratio CC50/EC50): CC50 Huh7 / EC50 DENV; for EC50: Dengue virus, Huh-7, 72 h, DENVGFP in Huh7 cells, MOI 0.1, 3 days
[5] = Cytotoxicity assay (Cell-Titer GLO, ATP levels, 72 h); type: cell-based; settings: human; HCT-8 cells, 72 h treatment, 4–500 µM
Description: as §2, §3

Huh7 cells = assay: as above; type: cell-based, human; settings: 72 h treatment, 4–500 µM
Description: as §2, §3

THP-1 cells = assay: as above; type: cell-based, human; settings: 72 h treatment, 4–500 µM
Description: as §2, §3

AChE = test system: AChE; parameters: method as in earlier work; settings: ref 19 (Vaněčková et al.); cited from earlier work

Which inhibition at 500 µM [1] does the source give for `COc1cc(CNCCc2ccc(O)cc2)ccc1O` [3′-O-methylnorbelladine] here?
The inhibition at 500 µM was 10%.

What about the IC50 [1] of the same molecule?
The IC50 was greater than 500 µM.

And the CC50 at 72 h ([2]; Huh7 cells)?
Its CC50 at 72 h is greater than 500 µM.

And the CC50 at 72 h ([2]; THP-1 cells)?
Its CC50 at 72 h is greater than 500 µM.

What about the EC50 [3] of the same molecule?
The EC50 was 74.5 µM.

What about the “SI OC-43 (selectivity index, ratio CC50/EC50)” value [3] of the same molecule?
Its value is greater than 6.71.

What about the inhibition at 500 µM [4] of the same molecule?
The inhibition at 500 µM was 96%.

And the IC50 [4]?
The IC50 was 27.5 µM.

What about the “SI HIV-1 (selectivity index, ratio CC50/EC50)” value (pseudotyped HIV-1) of the same molecule?
The value was greater than 2.83.

And the EC50 (pseudotyped HIV-1)?
Its EC50 is 177 µM.

What about the “SI DENV (selectivity index, ratio CC50/EC50)” value (dengue virus (DENV)) of the same molecule?
The value was greater than 3.62.

And the EC50 (dengue virus (DENV))?
Its EC50 is 138 µM.

What about the CC50 at 72 h [5] of the same molecule?
The CC50 at 72 h was greater than 500 µM.

Which results are given for `CN(CCc1ccc(O)cc1)Cc1ccc(O)c(O)c1` [N-methylnorbelladine]?
inhibition at 500 µM [1]: 31.2%; IC50 [1]: > 500 µM; CC50 (Huh7 cells): 386 µM; CC50 at 72 h ([2]; Huh7 cells): 386 µM; CC50 at 72 h ([2]; THP-1 cells): 227 µM; CC50 (THP-1 cells): 227 µM; EC50 [3]: 66.8 µM; SI OC-43 (selectivity index, ratio CC50/EC50) [3]: >7.49; inhibition at 500 µM [4]: 96%; IC50 [4]: 3.94 µM and 4 µM; fold increase in BuChE inhibition by N-methylation compared to non-N-methylated control [4]: 2 fold; SI HIV-1 (selectivity index, ratio CC50/EC50) (pseudotyped HIV-1): 5.36; EC50 (pseudotyped HIV-1): 42.3 µM; SI DENV (selectivity index, ratio CC50/EC50) (dengue virus (DENV)): 5.70; EC50 (dengue virus (DENV)): 67.7 µM; CC50 at 72 h [5]: > 500 µM

For `COc1ccc(CNCCc2ccc(O)cc2)cc1OC` [3′,4′-O-dimethylnorbelladine], which inhibition at 500 µM [1] is on record?
The inhibition at 500 µM was 37%.

What about the IC50 [1] of the same molecule?
The IC50 was greater than 500 µM.

And the CC50 at 72 h ([2]; Huh7 cells)?
Its CC50 at 72 h is greater than 500 µM.

What about the CC50 at 72 h ([2]; THP-1 cells) of the same molecule?
The CC50 at 72 h was greater than 500 µM.

What about the EC50 [3] of the same molecule?
The EC50 was 84.7 µM.

And the “SI OC-43 (selectivity index, ratio CC50/EC50)” value [3]?
The value was greater than 5.91.

What about the inhibition at 500 µM [4] of the same molecule?
The inhibition at 500 µM was 94%.

And the IC50 [4]?
The IC50 was 108 µM.

What about the “SI HIV-1 (selectivity index, ratio CC50/EC50)” value (pseudotyped HIV-1) of the same molecule?
The value was greater than 2.63.

And the EC50 (pseudotyped HIV-1)?
The EC50 was 190 µM.

What about the “SI DENV (selectivity index, ratio CC50/EC50)” value (dengue virus (DENV)) of the same molecule?
Its value is greater than 3.64.

What about the EC50 (dengue virus (DENV)) of the same molecule?
Its EC50 is 137 µM.

What about the CC50 at 72 h [5] of the same molecule?
Its CC50 at 72 h is greater than 500 µM.

For `COc1ccc(CN(C)CCc2ccc(O)cc2)cc1O` [4′-O,N-dimethylnorbelladine, 5-(((4-hydroxyphenethyl)(methyl)amino)methyl)-2-methoxyphenol], which inhibition at 500 µM [1] is on record?
The inhibition at 500 µM was 43.6%.

What about the IC50 [1] of the same molecule?
Its IC50 is greater than 500 µM.

And the CC50 at 72 h ([2]; Huh7 cells)?
Its CC50 at 72 h is 460 µM.

What about the CC50 at 72 h ([2]; THP-1 cells) of the same molecule?
The CC50 at 72 h was greater than 500 µM.

And the EC50 [3]?
The EC50 was 42.4 µM.

What about the “SI OC-43 (selectivity index, ratio CC50/EC50)” value [3] of the same molecule?
The value was greater than 11.80.

And the inhibition at 500 µM [4]?
The inhibition at 500 µM was 99%.

And the IC50 [4]?
Its IC50 is 10.4 µM.

And the “fold increase in BuChE inhibition by N-methylation compared to non-N-methylated control” value [4]?
The value was 1.5 fold.

And the “SI HIV-1 (selectivity index, ratio CC50/EC50)” value (pseudotyped HIV-1)?
Its value is greater than 4.06.

What about the EC50 (pseudotyped HIV-1) of the same molecule?
The EC50 was 123 µM.

What about the “SI DENV (selectivity index, ratio CC50/EC50)” value (dengue virus (DENV)) of the same molecule?
The value was 4.81.

And the EC50 (dengue virus (DENV))?
Its EC50 is 95.8 µM.

And the CC50 at 72 h [5]?
Its CC50 at 72 h is greater than 500 µM.

What does the source list for `COc1ccc(CNCCc2ccc(O)cc2)cc1O` [4′-O-methylnorbelladine]?
inhibition at 500 µM [1]: 33.6%; IC50 [1]: > 500 µM; CC50 at 72 h ([2]; Huh7 cells): > 500 µM; CC50 at 72 h ([2]; THP-1 cells): > 500 µM; EC50 [3]: 63 µM; SI OC-43 (selectivity index, ratio CC50/EC50) [3]: >7.93; inhibition at 500 µM [4]: 99%; IC50 [4]: 16.1 µM; SI HIV-1 (selectivity index, ratio CC50/EC50) (pseudotyped HIV-1): >3.06; EC50 (pseudotyped HIV-1): 163 µM; SI DENV (selectivity index, ratio CC50/EC50) (dengue virus (DENV)): >6.28; EC50 (dengue virus (DENV)): 79.6 µM; CC50 at 72 h [5]: > 500 µM

Which anti-AChE activity (AChE) does the source give for `COc1ccc(CCN(C)Cc2ccc(O)c(OC)c2)cc1` [4′-O-demethylbelladine] here?
Its anti-AChE activity is “weak”.

For `Oc1ccc(CCNCc2ccc(O)c(O)c2)cc1` [Norbelladine], which inhibition at 500 µM [1] is on record?
Its inhibition at 500 µM is 24.5%.

And the IC50 [1]?
The IC50 was greater than 500 µM.

And the CC50 (Huh7 cells)?
Its CC50 is 233 µM.

What about the CC50 at 72 h ([2]; Huh7 cells) of the same molecule?
The CC50 at 72 h was 233 µM.

And the CC50 at 72 h ([2]; THP-1 cells)?
Its CC50 at 72 h is 148 µM.

What about the CC50 (THP-1 cells) of the same molecule?
The CC50 was 148 µM.

What about the EC50 [3] of the same molecule?
Its EC50 is 55.7 µM.

What about the “SI OC-43 (selectivity index, ratio CC50/EC50)” value [3] of the same molecule?
The value was greater than 8.98.

What about the inhibition at 500 µM [4] of the same molecule?
Its inhibition at 500 µM is 95%.

What about the IC50 [4] of the same molecule?
Its IC50 is 8 µM.

What about the “SI HIV-1 (selectivity index, ratio CC50/EC50)” value (pseudotyped HIV-1) of the same molecule?
The value was 2.22.

What about the EC50 (pseudotyped HIV-1) of the same molecule?
Its EC50 is 66.9 µM.

What about the “SI DENV (selectivity index, ratio CC50/EC50)” value (dengue virus (DENV)) of the same molecule?
Its value is 3.30.

And the EC50 (dengue virus (DENV))?
The EC50 was 70.6 µM.

What about the CC50 at 72 h [5] of the same molecule?
Its CC50 at 72 h is greater than 500 µM.
